Measured values as given in patent US5648369A, “Aminoalkylpyridine compounds which are useful as anitconvulsant drugs, excitatory amino acid inhibitors and NMDA sigma receptor antagonists” (priority 1991, dated 1997).

Columns and labels:
[1] = target: NMDA; test: Radioligand binding, NMDA, [3H]CGS19755
Excerpt: (§1) EAAs are known to play important roles in excitatory neurotransmission in partial seizures as discussed earlier. […] Thus, several aminoalkylpyridines of this invention are effective antagonists of NMDA-receptor mediated EAA neurotransmission and function as noncompetitive NMDA antagonists and thus can be used to advantage in epilepsy, stroke and Alzheimer's disease.
(§2) EAAs are known to play important roles in excitatory transmission in partial seizures as discussed earlier. In general, antieptileptic drugs effective against MES seizures alter ionic transport across excitable membranes [Porter, R. J., and Pitlick, W. H., In "Basic and Clinical Pharmacology", 4th Edn., B. G. Katzung, Ed., Appleton and Lange, CA 1989, pp. 287-303]. Based on this rationale, the aminoalkylpyridines may be expected to attenuate EAA neurotransmission. Indeed, evaluation of potential displacement activity of #2 at all inhibitory and excitatory amino acid receptor types and subtypes using appropriate radioligands, indicate that this aminoalkylpyridine inhibits at 10 μM concentration, 49% of the binding of [^3 H]DTG, a ligand highly specific for the σ (sigma) receptor population of the PCP receptors on the NMDA receptor-ionophore complex (Table 6).
(§3) Values are expressed as the percent inhibition of specific binding and […]

[2] = target: Benzodiazepine; test: Radioligand binding, Benzodiazepine
Excerpt: as §1, §2, §3

[3] = system: PCF; test: Radioligand binding, PCP, [3H]TCP
Excerpt: as §1, §2, §3

[4] = system: Adenosine; test: Radioligand binding, Adenosine
Excerpt: as §1, §2, §3

[5] = target: GABAe (Homo sapiens, UniProt Q9UBS5); test: Radioligand binding, GABAe
Excerpt: (§4) EAAs are known to play important roles in excitatory neurotransmission in partial seizures as discussed earlier.
(§5) EAAs are known to play important roles in excitatory transmission in partial seizures as discussed earlier.

[6] = system: subcutaneous pentylenetetrazol seizures; test: Subcutaneous pentylenetetrazol (Metrazole) seizure threshold test (scMet), mice, i.p.; assay type: in vivo; settings: Mus musculus, ip
Experimental: (§6) The Subcutaneous Pentylenetetrazol (Metrazole) Seizure Threshold Test (scMet): A 0.5% solution of 85 mg/kg of pentylenetetrazol is administered subcutaneously in the posterior midline. The animal is observed for 30 minutes.

[7] = in vivo; set-up: species or system rat (Sprague-Dawley); settings: rat, po
Excerpt: Inability to do so rapidly indicates a neurologic deficit.

[8] = system: MK-801; test: Radioligand binding, MK-801, [3H]MK-801
Excerpt: as §1, §2, §3

[9] = target: Glycine (Homo sapiens, UniProt P23415); test: Radioligand binding, Glycine (inhibitory)
Excerpt: as §4, §5

[10] = Rotorod ataxia test (neurotoxicity), mice, i.p.; settings: mouse, in vivo, ip
Experimental: Neurotoxicity is evaluated in mice by the rotorod ataxia test. The animal is placed on a wooden rod of 11/8" diameter rotating at 6 rpm. Normal mice can remain on a rod rotating at this speed indefinitely.

[11] = target: Glycine (Homo sapiens, UniProt Q05586); test: Radioligand binding, Glycine (excitatory), [3H]glycine
Excerpt: as §4, §5

[12] = system: Kainate; test: Radioligand binding, Kainate, [3H]KA
Excerpt: as §1, §2, §3

[13] = system: MES and scMet seizures; test: Anticonvulsant screening, ASP classification (MES and scMet tests) in mice, i.p.; assay type: in vivo, mouse; settings: ip; i.p. mouse; read-out: ASP Group Classification
[14] = system: GABAA; test: Radioligand binding, GABAA
Excerpt: as §4, §5

[15] = system: Quisqualate; test: Radioligand binding, Quisqualate, [3H]AMPA
Excerpt: as §1, §2, §3

[16] = system: subcutaneous pentylenetetrazol seizures; test: Subcutaneous pentylenetetrazol seizure threshold test (scMet), rat, p.o.; assay type: in vivo, rat (Sprague-Dawley); settings: po
Experimental: as §6

[17] = system: endogenous L-glutamate release; test: Ca2+ dependent, K+ evoked release of endogenous L-glutamate in cerebrocortical slices; assay type: cell-based, guinea pig; settings: Cavia porcellus; for activity at 50 µM / activity at 100 µM: means ± SEM, n = 4
[18] = system: Sigma; test: Radioligand binding, Sigma, [3H]DTG
Excerpt: as §4, §5

[19] = system: maximal electroshock seizures; test: Maximal electroshock seizure (MES) test, anticonvulsant quantification in mice, i.p.
Experimental: Screening Methodology to Determine Anticonvulsant Activity: In mice, i.p.: All compounds are solubilized in 0.5% methylcellulose. […] The compounds are administered intraperitoneally in a volume of 0.01 ml/gm to male Carworth Farms #1 mice weighing about 20 gm. All compounds are tested at least at three dose levels (30, 100 an 300 mg/kg) at 30 minutes and 4 hours after their administration.
(§7) The Maximal Electroshock Seizure Test (MES): Maximal electroshock seizures are elicited with a 60 Hz alternating current of 50 mA intensity in mice and about 150 mA in rats (5-7 times that necessary to elicit minimal electroshock seizures), delivered for 0.2 sec via corneal electrodes. A drop of 0.9% saline is instilled in the eye prior to application of the electrodes in order to prevent the death of the animal. Abolition of the hind limb tonic extension component of the seizure is defined as protection and results are expressed as number of animals protected/number of animals tested.
Anticonvulsant Quantification in Mice, i.p.: The ED50 values are determined in the MES, scMet and rotorod ataxia test.

[20] = system: maximal electroshock seizures; test: Maximal electroshock seizure (MES) test in the rat, p.o.
Excerpt: as §7
This species will be subject of the complete anticonvulsant quantification test evaluation as described above, but after oral (gavage) administration of the candidate compound.
Neurological deficit in rats is examined by the positional sense test and gait and stance test. […] Inability to do so rapidly indicates a neurologic deficit. In the gait and stance test, a neurologic deficit is indicated by a circular or zigzag gait, ataxia, abnormal spread of the legs, abnormal body posture, tremor, hyperactivity, lack of exploratory behavior, somnolence, stupor, or catalepsy.

[21] = 10^-7 M, read-out: Percent Inhibition of specific binding (Average; N = 2)

Glycine (Homo sapiens, UniProt P23415), sequence (P23415 29-457): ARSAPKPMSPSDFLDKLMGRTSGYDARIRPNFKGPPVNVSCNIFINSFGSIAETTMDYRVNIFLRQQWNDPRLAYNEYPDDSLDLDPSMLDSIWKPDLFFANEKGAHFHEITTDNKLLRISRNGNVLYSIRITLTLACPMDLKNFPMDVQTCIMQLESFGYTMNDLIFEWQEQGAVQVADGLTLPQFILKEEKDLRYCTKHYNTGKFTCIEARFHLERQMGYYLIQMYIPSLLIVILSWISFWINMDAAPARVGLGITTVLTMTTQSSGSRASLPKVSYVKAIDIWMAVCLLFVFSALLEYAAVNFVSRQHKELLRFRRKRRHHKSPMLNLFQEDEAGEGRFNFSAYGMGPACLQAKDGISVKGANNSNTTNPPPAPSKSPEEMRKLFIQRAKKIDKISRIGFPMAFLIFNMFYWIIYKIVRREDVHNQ
Glycine (Homo sapiens, UniProt P23415), sequence (P48167 23-497 partner): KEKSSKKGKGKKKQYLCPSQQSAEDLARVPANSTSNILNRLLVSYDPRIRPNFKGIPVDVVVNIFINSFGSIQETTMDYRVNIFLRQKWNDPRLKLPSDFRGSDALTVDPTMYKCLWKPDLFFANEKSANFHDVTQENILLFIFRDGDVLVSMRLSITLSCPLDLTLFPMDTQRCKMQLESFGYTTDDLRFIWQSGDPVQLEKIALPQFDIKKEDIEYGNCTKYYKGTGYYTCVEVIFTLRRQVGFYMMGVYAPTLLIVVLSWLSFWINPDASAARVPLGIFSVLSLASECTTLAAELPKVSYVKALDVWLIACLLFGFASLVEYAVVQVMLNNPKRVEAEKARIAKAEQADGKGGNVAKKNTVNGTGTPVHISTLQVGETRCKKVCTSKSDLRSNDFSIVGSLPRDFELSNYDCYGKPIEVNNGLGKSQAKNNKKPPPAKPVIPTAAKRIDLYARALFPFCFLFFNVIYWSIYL
GABAe, sequence (Q9UBS5 15-961 limits assumed): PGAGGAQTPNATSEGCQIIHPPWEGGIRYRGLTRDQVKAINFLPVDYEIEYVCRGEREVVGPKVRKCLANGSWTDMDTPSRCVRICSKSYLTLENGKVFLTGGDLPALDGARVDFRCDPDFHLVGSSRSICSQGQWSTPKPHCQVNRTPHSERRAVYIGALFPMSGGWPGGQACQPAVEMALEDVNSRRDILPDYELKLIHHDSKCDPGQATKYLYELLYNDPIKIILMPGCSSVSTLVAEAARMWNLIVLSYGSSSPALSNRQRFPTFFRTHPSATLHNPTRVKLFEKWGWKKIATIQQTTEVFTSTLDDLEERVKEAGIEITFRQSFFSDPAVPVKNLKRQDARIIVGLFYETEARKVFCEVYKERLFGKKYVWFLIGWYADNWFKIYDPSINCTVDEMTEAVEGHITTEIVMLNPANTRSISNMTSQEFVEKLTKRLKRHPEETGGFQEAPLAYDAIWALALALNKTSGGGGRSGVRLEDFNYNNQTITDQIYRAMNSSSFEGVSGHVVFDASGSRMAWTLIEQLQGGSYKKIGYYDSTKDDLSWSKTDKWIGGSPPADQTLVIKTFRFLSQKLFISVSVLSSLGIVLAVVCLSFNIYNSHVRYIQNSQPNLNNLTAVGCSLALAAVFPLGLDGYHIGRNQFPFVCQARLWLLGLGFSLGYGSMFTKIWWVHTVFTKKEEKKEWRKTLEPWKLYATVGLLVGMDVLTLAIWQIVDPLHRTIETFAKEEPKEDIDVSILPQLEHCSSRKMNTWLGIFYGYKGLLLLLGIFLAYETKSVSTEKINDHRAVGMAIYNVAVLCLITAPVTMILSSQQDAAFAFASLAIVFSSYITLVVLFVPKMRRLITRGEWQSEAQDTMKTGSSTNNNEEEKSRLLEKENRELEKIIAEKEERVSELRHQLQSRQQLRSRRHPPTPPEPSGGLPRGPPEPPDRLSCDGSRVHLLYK
GABAe, sequence (O75899 42-941 partner): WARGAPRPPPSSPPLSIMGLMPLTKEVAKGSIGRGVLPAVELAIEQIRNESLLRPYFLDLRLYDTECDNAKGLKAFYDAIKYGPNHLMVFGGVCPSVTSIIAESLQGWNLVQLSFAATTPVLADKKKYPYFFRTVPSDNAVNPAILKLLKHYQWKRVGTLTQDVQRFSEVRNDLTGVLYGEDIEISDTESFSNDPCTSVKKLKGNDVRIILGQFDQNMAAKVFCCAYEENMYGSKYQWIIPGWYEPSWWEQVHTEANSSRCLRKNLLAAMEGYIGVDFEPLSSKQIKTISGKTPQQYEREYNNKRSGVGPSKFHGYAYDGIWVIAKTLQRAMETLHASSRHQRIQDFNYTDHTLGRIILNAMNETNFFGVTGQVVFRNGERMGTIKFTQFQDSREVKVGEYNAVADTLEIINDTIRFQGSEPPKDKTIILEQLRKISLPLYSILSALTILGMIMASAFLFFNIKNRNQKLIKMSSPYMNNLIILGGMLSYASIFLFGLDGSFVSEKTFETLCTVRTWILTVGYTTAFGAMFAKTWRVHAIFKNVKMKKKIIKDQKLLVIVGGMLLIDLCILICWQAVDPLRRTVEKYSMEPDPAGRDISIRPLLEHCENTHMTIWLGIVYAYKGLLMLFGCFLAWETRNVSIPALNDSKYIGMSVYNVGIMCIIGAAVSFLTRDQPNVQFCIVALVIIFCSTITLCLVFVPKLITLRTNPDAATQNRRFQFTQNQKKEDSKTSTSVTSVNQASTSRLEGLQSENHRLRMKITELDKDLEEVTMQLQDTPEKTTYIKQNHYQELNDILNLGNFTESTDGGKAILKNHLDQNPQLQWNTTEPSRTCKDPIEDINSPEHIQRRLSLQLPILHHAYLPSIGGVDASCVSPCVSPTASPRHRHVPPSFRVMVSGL

O=C(O)C1CN(CCCP(=O)(O)O)CCN1 (stereo not drawn) [CPP, reference compound]
Ki ([1]; reference compound, [3H]CGS19755): 359 nM

O=C1CN=C(c2ccccc2Cl)c2cc([N+](=O)[O-])ccc2N1 [Clonazepam, reference compound]
Ki ([2]; reference compound, Benzodiazepine): 3.4 nM

CC(Nc1ccc(Cl)cc1)c1ccncc1 (stereo not drawn) [Compound 2, 1-(4-Chloroanilino)-1-(4-pyridyl)-ethan]
activity at the [3H]TCP-binding receptor sites / PCP receptors (in words) [3]: no activity
Percent Inhibition of specific binding (Average; N = 2) ([3]; 1.0^-5 M): -1.8%
Percent Inhibition of specific binding (Average; N = 2) ([3]; 10^-7 M): -3.8%
Percent Inhibition of specific binding (Average; N = 2) ([4]; 1.0^-5 M): -15.9%
Percent Inhibition of specific binding (Average; N = 2) ([4]; 10^-7 M): -15.2%
Percent Inhibition of specific binding (Average; N = 2) ([5]; 1.0^-5 M): -4.9%
inhibition at 0.1 µM [5, 21]: 3.6%
ED50 [6]: < 150 mg/kg
Percent Inhibition of specific binding (Average; N = 2) ([1]; 1.0^-5 M): -6.6%
Percent Inhibition of specific binding (Average; N = 2) ([1]; 10^-7 M): 3.5%
TD50 [7]: > 470 mg/kg
activity at the [3H]MK-801-binding receptor sites (in words) [8]: no activity
Percent Inhibition of specific binding (Average; N = 2) ([8]; 1.0^-5 M): 17.0%
Percent Inhibition of specific binding (Average; N = 2) ([8]; 10^-7 M): 13.5%
Percent Inhibition of specific binding (Average; N = 2) ([9]; 1.0^-5 M): -1.4%
inhibition at 0.1 µM [9, 21]: -1.8%
TD50 [10]: 160 mg/kg
Percent Inhibition of specific binding (Average; N = 2) ([11]; 1.0^-5 M): -4.0%
inhibition at 0.1 µM [11, 21]: 8.7%
Percent Inhibition of specific binding (Average; N = 2) ([12]; 1.0^-5 M): -7.3%
Percent Inhibition of specific binding (Average; N = 2) ([12]; 10^-7 M): -3.7%
minimal effective dose [13]: < 100 mg/kg
Percent Inhibition of specific binding (Average; N = 2) ([14]; 1.0^-5 M): 1.2%
Percent Inhibition of specific binding (Average; N = 2) ([14]; 10^-7 M): 6.5%
Percent Inhibition of specific binding (Average; N = 2) ([15]; 1.0^-5 M): 4.3%
Percent Inhibition of specific binding (Average; N = 2) ([15]; 10^-7 M): 4.2%
ED50 [16]: > 250 mg/kg
activity at 50 µM ([17]; 50 μM (K+), 30 mM K+, P < 0.001 vs K+ alone): 121 ± 8%
activity at 50 µM ([17]; 50 μM (basal)): 101 ± 6%
activity at 100 µM ([17]; 100 μM (K+), 30 mM K+, P < 0.001 vs K+ alone): 114 ± 4%
activity at 100 µM ([17]; 100 μM (basal)): 99 ± 9%
inhibition at 50 µM ([17]; 50 μM): 74%
inhibition at 100 µM ([17]; 100 μM): 80%
inhibition of the binding of [3H]DTG ([18]; 10 μM concentration): 49%
Percent Inhibition of specific binding (Average; N = 2) ([18]; 1.0^-5 M): 49.1%
Percent Inhibition of specific binding (Average; N = 2) ([18]; 10^-7 M): 12.9%
inhibition of the binding of [3H]DTG (in words) ([18]; σ receptor population): inhibit selectively
Percent Inhibition of specific binding (Average; N = 2) ([2]; 1.0^-5 M): -7.8%
Percent Inhibition of specific binding (Average; N = 2) ([2]; 10^-7 M): -4.7%
ED50 ([19]; Mus musculus, ip, read-out: ED50 MES): 53.7 mg/kg
P.I. MES (TD50/ED50) ([19]; mice, i.p.): 2.98
ED50 ([20]; Rattus norvegicus, po, read-out: ED50 MES): 22.9 mg/kg
responders at 50 mg/kg ([20]; Rattus norvegicus, po, read-out: Percent protection at 50 mg/kg dose, p.o., in the MES Test in the rat): 75 to 100%
P.I. MES (TD50/ED50) ([20]; rat, p.o.): > 20.53

NCc1cc(=O)[nH]o1 [Muscimol, reference compound]
Ki ([14]; reference compound, GABAA): 2.8 nM

O=C1C[C@@H]2OCC=C3CN4CC[C@]56c7ccccc7N1[C@H]5[C@H]2[C@H]3C[C@H]46 [Strychnine Nitrate, reference compound]
Ki [9]: 33.5 nM
